Measurements published in ChEMBL document CHEMBL1275376, “Development, validation, and use of quantitative structure-activity relationship models of 5-hydroxytryptamine (2B) receptor ligands to identify novel receptor binders and putative valvulopathic compounds among common drugs” (J Med Chem, 2010).

Each compound was assayed against T1, 5-hydroxytryptamine receptor 2B (Homo sapiens, UniProt P41595) (assay: Displacement of [3H]LSD from human cloned 5HT2B receptor expressed in CHO cells by liquid scintillation counting).
Type: cell-based

T1 sequence (P41595 whole entry): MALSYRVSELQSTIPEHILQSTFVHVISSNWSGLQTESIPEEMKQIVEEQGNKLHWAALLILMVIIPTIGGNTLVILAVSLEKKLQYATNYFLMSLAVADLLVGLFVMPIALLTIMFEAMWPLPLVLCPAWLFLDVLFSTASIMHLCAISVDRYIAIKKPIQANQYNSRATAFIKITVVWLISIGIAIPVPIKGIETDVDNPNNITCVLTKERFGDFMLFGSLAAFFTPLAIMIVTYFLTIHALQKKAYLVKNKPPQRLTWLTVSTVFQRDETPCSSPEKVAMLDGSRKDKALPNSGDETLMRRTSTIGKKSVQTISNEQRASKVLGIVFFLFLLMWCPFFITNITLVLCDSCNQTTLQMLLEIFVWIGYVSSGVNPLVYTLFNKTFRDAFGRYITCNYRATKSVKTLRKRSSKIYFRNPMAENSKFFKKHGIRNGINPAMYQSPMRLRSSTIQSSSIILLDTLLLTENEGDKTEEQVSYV

Row | SMILES | Ki
1 | COc1ccc2[nH]cc(CN)c2c1 | 1620 nM
2 | Cn1ccc2cc3c(cc21)CCN3C(=O)Nc1cccnc1 | 4.3 nM
3 | COc1cc2c(CCNC(C)=O)c[nH]c2cc1F | 2500 nM
4 | Fc1ccc(N2CCN(CCC3OCCc4ccccc43)CC2)cc1 (centres undefined) | 69.6 nM
5 | COc1ccc2[nH]c3c(c2c1)CCNC3C (centres undefined) [ADRENOGLOMERULOTROPIN] | 491 nM
6 | CC(NCCC(c1ccccc1)c1ccccc1)c1ccccc1 (centres undefined) [FENDILINE] | 3220 nM
7 | NC(=O)N1c2ccccc2CC(O)c2ccccc21 (centres undefined) [LICARBAZEPINE] | > 10000 nM
8 | CC[C@@H](CO)NC(=O)[C@@H]1C=C2c3cccc4[nH]cc(c34)C[C@H]2N(C)C1 [METHYLERGONOVINE] | 0.8 nM

The compounds below were run against T1, 5-hydroxytryptamine receptor 2B (assay: Agonist at human 5HT2B receptor expressed in HEK293 cells assessed as induction of calcium influx by FLIPR assay).
Type: functional, cell-based

Row | SMILES | EC50
9 | CC[C@@H](CO)NC(=O)[C@@H]1C=C2c3cccc4[nH]cc(c34)C[C@H]2N(C)C1 [METHYLERGONOVINE] | 21.4 nM
